# Experimental data published in patent US7718715B2, “pH-modified latex comprising a synergistic combination of biocides” (S.C. Johnson & Son, Inc., priority 2004, dated 2010).
# What was measured:
# [1] = test system: Aspergillus niger #6275; assay: Challenge Test (Antimicrobial Effectiveness Test), mold inoculum; assay type: cell-based; design: key to Challenge Test result: Mold A. niger: Fail: Recovery of surviving organisms at 14 days was a failing result for the challenge test; settings: for Challenge Test result: Mold A. niger: stabilized acrylic latex A, DN 22%
# Experimental: The following cultures were obtained from American Type Culture Collection (ATCC) at 10801 University Boulevard, Manassas, Va. 20110-2209: Escherichia coli #11229, Pseudomonas aeruginosa #15442, Candida albicans #10231, Aspergillus niger #6275. The mold inoculum was 0.10 ml of A. niger culture specimen in 25 grams of sample to give approximately 2×10^5 CFU/g. The culture specimen was obtained from 7-day-old A. niger culture grown on Sabouraud Dextrose Agar (Difco Laboratories, Detroit, Mich.) with 0.2% Triton X-100 in 0.85% saline. Each of the 25-g samples were inoculated or challenged with 0.10 ml of the bacterial inoculum, the yeast inoculum, and the mold inoculum respectively on day-0 and day-14. All samples were stored at ambient temperature. Each sample (10 microliter) was streaked on appropriate agar plates (bacteria on Tryptic Soy Agar (Difco Laboratories, Detroit, Mich.) plates with neutralizer and yeast/mold on Potato Dextrose Agar (Difco Laboratories, Detroit, Mich.) plates with neutralizer) on day-1, day-2, day-3, day-7, day-14, day-15, day-16, day-17, day-21, and day-28 to test for survivors. Streaked plates were incubated at appropriate temperature and time (48-hr at 35±2° C. for bacteria and 72-hr at 28±2° C. for yeast/mold). On day-14, each sample was re-inoculated with appropriate inoculum after streaking on agar plates. Plates were read after incubation time. Recovery of surviving organisms at 14 days was a failing result for the challenge test. Biocides were always added after the reaction has been completed and after the batch has been cooled to <50° C. The desired temperature was dependent on the specific biocide. Many biocides become deactivated if exposed to high temperatures for an extended time. Each biocide was diluted with about 5× its weight with DI water and slowly added to the batch with good agitation. The dilution is to prevent the biocide from shocking the latex. The batch was mixed for a minimum of 20 minutes after the biocide was added to ensure good incorporation. If any temporary destabilization to the latex had occurred, it had time to recover prior to filtration. The Challenge Test is a qualitative laboratory procedure used to differentiate poorly and marginally preserved products from well-preserved products. Products are intentionally inoculated with test organisms and then evaluated by use of streak plating technique to determine if microbial reduction has been attained.
# [2] = test system: Escherichia coli #11229, Pseudomonas aeruginosa #15442; assay: Challenge Test (Antimicrobial Effectiveness Test), bacterial inoculum (1:1 mixture); assay type: cell-based, E. coli & P. aeruginosa; settings: stabilized acrylic latex A, DN 22%
# Experimental: The following cultures were obtained from American Type Culture Collection (ATCC) at 10801 University Boulevard, Manassas, Va. 20110-2209: Escherichia coli #11229, Pseudomonas aeruginosa #15442, Candida albicans #10231, Aspergillus niger #6275. The bacterial inoculum was 0.10 ml of a 1:1 mixture of the 24-hr±4 hr culture of E. coli and P. aeruginosa in 25 grams of sample to give approximately 4×10^6 CFU/g. Both E. coli culture and the P. aeruginosa culture were grown in Nutrient Broth (Difco Laboratories, Detroit, Mich.) at 35° C. Each of the 25-g samples were inoculated or challenged with 0.10 ml of the bacterial inoculum, the yeast inoculum, and the mold inoculum respectively on day-0 and day-14. All samples were stored at ambient temperature. Each sample (10 microliter) was streaked on appropriate agar plates (bacteria on Tryptic Soy Agar (Difco Laboratories, Detroit, Mich.) plates with neutralizer and yeast/mold on Potato Dextrose Agar (Difco Laboratories, Detroit, Mich.) plates with neutralizer) on day-1, day-2, day-3, day-7, day-14, day-15, day-16, day-17, day-21, and day-28 to test for survivors. Streaked plates were incubated at appropriate temperature and time (48-hr at 35±2° C. for bacteria and 72-hr at 28±2° C. for yeast/mold). On day-14, each sample was re-inoculated with appropriate inoculum after streaking on agar plates. Plates were read after incubation time. Recovery of surviving organisms at 14 days was a failing result for the challenge test. Biocides were always added after the reaction has been completed and after the batch has been cooled to <50° C. The desired temperature was dependent on the specific biocide. Many biocides become deactivated if exposed to high temperatures for an extended time. Each biocide was diluted with about 5× its weight with DI water and slowly added to the batch with good agitation. The dilution is to prevent the biocide from shocking the latex. The batch was mixed for a minimum of 20 minutes after the biocide was added to ensure good incorporation. If any temporary destabilization to the latex had occurred, it had time to recover prior to filtration. The Challenge Test is a qualitative laboratory procedure used to differentiate poorly and marginally preserved products from well-preserved products. Products are intentionally inoculated with test organisms and then evaluated by use of streak plating technique to determine if microbial reduction has been attained.
# [3] = test system: C. albicans & A. niger; assay: Challenge Test end point on yeast and mold and Synergy Index (Kull); assay type: cell-based; settings: Bioban CS-1135 acting alone (QA); test stabilized acrylic latex A
# Experimental: Each of the 25-g samples were inoculated or challenged with 0.10 ml of the bacterial inoculum, the yeast inoculum, and the mold inoculum respectively on day-0 and day-14. All samples were stored at ambient temperature. Each sample (10 microliter) was streaked on appropriate agar plates (bacteria on Tryptic Soy Agar (Difco Laboratories, Detroit, Mich.) plates with neutralizer and yeast/mold on Potato Dextrose Agar (Difco Laboratories, Detroit, Mich.) plates with neutralizer) on day-1, day-2, day-3, day-7, day-14, day-15, day-16, day-17, day-21, and day-28 to test for survivors. Streaked plates were incubated at appropriate temperature and time (48-hr at 35±2° C. for bacteria and 72-hr at 28±2° C. for yeast/mold). […] Plates were read after incubation time. […]
# Synergism was determined by the method described by F. C. […] Eisman, H. D. Sylwestrowicz, and R. L. Mayer in Applied Microbiology, Volume 9, pages 538-541, 1961 using the ratio determined by • Synergy Index (SI)=Qa/QA+Qb/QB=1 is additivity, <1 is synergism, and >1 is antagonism • where, • Qa=concentration of compound A, in the mixture, producing an end point • QA=concentration of compound A, acting alone, producing an end point • Qb=concentration of compound B, in the mixture, producing an end point • QB=concentration of compound B, acting alone, producing an end point
# [4] = 0.10% Bioban CS-1135, 0.00% Bronopol, pH 6.68
# [5] = 0.20% Bioban CS-1135, 0.00% Bronopol, pH 6.69
# [6] = 0.80% Bioban CS-1135, 0.00% Bronopol, pH 6.62
# [7] = 1.20% Bioban CS-1135, 0.00% Bronopol, pH 6.64
# [8] = 2.00% Bioban CS-1135, 0.00% Bronopol, pH 6.82
# [9] = 0.10% Bronopol (30% active), 0.00% Bioban CS-1135, pH 6.64, Table 1
# [10] = 0.10% Bronopol (30% active), 0.00% Dowicil 75, pH 6.64, Table 3
# [11] = 0.20% Bronopol (30% active), 0.00% Bioban CS-1135, pH 6.65, Table 1
# [12] = 0.20% Bronopol (30% active), 0.00% Dowicil 75, pH 6.65, Table 3
# [13] = 0.50% Bronopol (30% active), 0.00% Bioban CS-1135, pH 6.58, Table 1
# [14] = 0.50% Bronopol (30% active), 0.00% Dowicil 75, pH 6.58, Table 3
# [15] = 0.80% Bronopol (30% active), 0.00% Bioban CS-1135, pH 6.57, Table 1
# [16] = 0.80% Bronopol (30% active), 0.00% Dowicil 75, pH 6.57, Table 3
# [17] = 1.20% Bronopol (30% active), 0.00% Bioban CS-1135, pH 6.57, Table 1
# [18] = 1.20% Bronopol (30% active), 0.00% Dowicil 75, pH 6.57, Table 3
smiles,measurement,setting,value
"CC1(C)COCN1 [Bioban CS-1135, 4,4-dimethyl-oxazolidine]",Challenge Test result: Mold A. niger,[1]; [4],Fail
same,Challenge Test result: Mold A. niger,[1]; [5],Pass
same,Challenge Test result: Mold A. niger,[1]; [6],Pass
same,Challenge Test result: Mold A. niger,[1]; [7],Pass
same,Challenge Test result: Mold A. niger,[1]; [8],Pass
same,Challenge Test result: Bacteria E. coli & P. aeruginosa,[2]; [4],Pass
same,Challenge Test result: Bacteria E. coli & P. aeruginosa,[2]; [5],Pass
same,Challenge Test result: Bacteria E. coli & P. aeruginosa,[2]; [6],Pass
same,Challenge Test result: Bacteria E. coli & P. aeruginosa,[2]; [7],Pass
same,Challenge Test result: Bacteria E. coli & P. aeruginosa,[2]; [8],Pass
same,Compound A end-point in %,[3],2%
"O=[N+]([O-])C(Br)(CO)CO [Bronopol, 2-bromo-2-nitro-1,3-propanediol]",Challenge Test result: Mold A. niger,[1]; [9],Fail
same,Challenge Test result: Mold A. niger,[1]; [10],Fail
same,killing of the mold (A. niger),"[1]; 0.2% BRONOPOL, acrylic latex A",failed to kill
same,Challenge Test result: Mold A. niger,[1]; [11],Fail
same,Challenge Test result: Mold A. niger,[1]; [12],Fail
same,Challenge Test result: Mold A. niger,[1]; [13],Pass
same,Challenge Test result: Mold A. niger,[1]; [14],Pass
same,Challenge Test result: Mold A. niger,[1]; [15],Pass
same,Challenge Test result: Mold A. niger,[1]; [16],Pass
same,Challenge Test result: Mold A. niger,[1]; [17],Pass
same,Challenge Test result: Mold A. niger,[1]; [18],Pass
same,control of the growth of Aspergillus niger,"[1]; maximum allowable level, test stabilized acrylic latex",failed to control
same,Challenge Test result: Bacteria E. coli & P. aeruginosa,[2]; [9],Pass
same,Challenge Test result: Bacteria E. coli & P. aeruginosa,[2]; [10],Pass
same,Challenge Test result: Bacteria E. coli & P. aeruginosa,[2]; [11],Pass
same,Challenge Test result: Bacteria E. coli & P. aeruginosa,[2]; [12],Pass
same,Challenge Test result: Bacteria E. coli & P. aeruginosa,[2]; [13],Pass
same,Challenge Test result: Bacteria E. coli & P. aeruginosa,[2]; [14],Pass
same,Challenge Test result: Bacteria E. coli & P. aeruginosa,[2]; [15],Pass
same,Challenge Test result: Bacteria E. coli & P. aeruginosa,[2]; [16],Pass
same,Challenge Test result: Bacteria E. coli & P. aeruginosa,[2]; [17],Pass
same,Challenge Test result: Bacteria E. coli & P. aeruginosa,[2]; [18],Pass
